Source: US12054502B2, “Multifunctional immunity-targeted micromolecule anti-cancer medicine Bestazomib (Bestazomib) and preparation method and application thereof” (SHANDONG HUBBLE KISEN BIOLOGICAL TECHNOLOGY CO., LTD., priority 2018, dated 2024)
Structures can show the parent of a compound that is named as a salt. Where two headings read alike, the source gives them in different places.

How the values were obtained:
[1] = test system: human liver cancer PLC/PRF/5 cell line; test: MTT cell proliferation inhibition, PLC/PRF/5; format: cell-based; details: average of three tests, read-out: IC50 tumor cell proliferation, PLC/PRF/5
Description: (§1) The in vitro cell proliferation inhibitory activity test of the target compound adopts the MTT method. Human leukemia K562 cell line, human myeloma U266 cell line, human lung cancer A549 cell, human prostate cancer PC-3 cell line, human lymphoma U937 cell line, human liver cancer PLC/PRF/5 cell line, and human embryonic kidney cell HEK293, human normal hepatocyte HL7702 were taken, and all adopted routine culture. Logarithmic growth phase cells were used in the experiment. The cell suspensions of the above cells were taken and counted under an inverted microscope, and the medium was added to adjust the number of cells to 1×10^5/mL. A 96-well cell culture plate was taken for cell inoculation and drug experiment. The peripheral holes are not used (filled with sterile PBS). Blank control group, negative control group, positive control group and a drug experiment group were set up. The blank control group only added 150 L/Well of cell culture solution, the negative control group was inoculated with 100 µL/well of cell suspension and 50 µL/well of cell culture medium was added, the positive control group was inoculated with 100 µL/well of cell suspension and 50 µL/well of positive control drug solution was added, and the drug experiment group was inoculated with 100 L/Well of cell suspension and 50 µL/well of the test compound solution was added, the positive control group and the drug experimental group are respectively set up with 5 different final drug concentrations: […], 3 parallel re-wells for each drug concentration. After the drug was added, the 96-well cell culture plate was incubated at 37° C., 5% CO2 and saturated humidity for 48 hours, and 10 μL of 0.5% MTT staining solution was added to each well. […] Measure the OD value of each well with a microplate reader at a wavelength of 570 nm, and the cell growth inhibition rate is calculated according to the following formula: […]

[2] = test system: human lung cancer A549 cell; test: MTT cell proliferation inhibition, A549; format: cell-based; details: average of three tests, read-out: IC50 tumor cell proliferation, A549
Description: as §1

[3] = test system: human myeloma U266 cell line; test: MTT cell proliferation inhibition, U266; format: cell-based; details: average of three tests, read-out: IC50 tumor cell proliferation, U266
Description: as §1

[4] = test system: Human leukemia K562 cell line; test: MTT cell proliferation inhibition, K562; format: cell-based; details: average of three tests, read-out: IC50 tumor cell proliferation, K562
Description: as §1

[5] = test system: human prostate cancer PC-3 cell line; test: MTT cell proliferation inhibition, PC-3; format: cell-based; details: average of three tests, read-out: IC50 tumor cell proliferation, PC-3
Description: as §1

[6] = test system: human lymphoma U937 cell line; test: MTT cell proliferation inhibition, U937; format: cell-based; details: average of three tests, read-out: IC50 tumor cell proliferation, U937
Description: as §1

[7] = test system: H22 liver ascites model; test: Survival test of H22 liver ascites model; format: in vivo, Kunming mice; details: equal molar amount with Ixazomib, FIG. 5-6
Protocol: Take well-grown H22 mice with liver cancer, extract ascites, add sterile PBS solution to dilute to a concentration of 2.5×10^7/mL, and inoculate the abdominal cavity of Kunming mice with 200 μL each. 5 days later, the animals were randomly grouped to administrate the drug. The day of inoculation was the first day. The body weight of the animals was recorded at the time of administration. The mice were randomly weighed and divided into the following 6 groups, with 10 mice in each group. […] The mice were administered according to the predetermined dosage, weighed and recorded respectively.
(§2) Use Origin7.5 software's one-way analysis of variance (One-Way ANOVA) function to calculate the overall difference; use t-test to compare each group with the blank group, and the life extension rate of each drug group was calculated by the following formula: […]

[8] = biological target: 20S Proteasome (Homo sapiens (Human), UniProt P28074); test: 20S proteasome detection kit, in vitro proteasome activity test (7-AMC fluorescence); format: biochemical; details: average of three tests
Description: The proteasome interacts with its substrate to produce the fluorescent substance 7-amino-4-methylcoumarin (7-AMC), and the concentration of 7-AMC is positively correlated with the activity of the proteasome. Measure the fluorescence intensity at 380/460 nm to calculate the inhibition rate based on the absorbance of the inhibitor group and the control group, and calculate the IC50 value.

[9] = biological target: Aminopeptidase N (APN) (Homo sapiens (Human), UniProt P15144); test: Inhibition of aminopeptidase N in vitro (L-leucyl p-nitroaniline substrate, absorbance 405 nm); format: biochemical; details: average of three tests
Description: Aminopeptidase N interacts with its commercial substrate L-leucyl p-nitroaniline (purchased from Sigma) to produce p-nitroaniline that is absorbed at 405 nm, and the concentration of p-nitroaniline is positively correlated to the enzyme activity. Measure the absorbance at 405 nm, and calculate the inhibition rate based on the absorbance of the inhibitor group and the control group, and calculate the IC50 value.

[10] = test system: B16F10 melanoma cells; test: Subcutaneous tumor survival test with B16F10 melanoma cells; format: in vivo, C57 mice
Protocol: The B16F10 melanoma cells in the logarithmic growth phase were taken, diluted with sterile PBS solution to a concentration of 1.5×10^7 cells/mL, and inoculated them subcutaneously in C57 mice with 150 μL each. 5 days later, the animals were randomly assigned to administer the drug. The day of inoculation was the first day. The body weight of the animals was recorded at the time of administration. The mice were randomly weighed and divided into the following 5 groups. […] The mice were administered according to the predetermined dosage, weighed and recorded respectively. Continuous observation until the death of the mouse was the end of observation, and the time of death of each mouse was recorded. The time of death of the mice in each group was counted.
as §2

[11] = test system: macrophages; test: Function test of clearance rate of charcoal particles (macrophage phagocytosis) in mice; format: in vivo, Kunming mice; details: for carbon clearance index (K) / phagocytosis index(α): mice, administered 2 weeks, mean ± standard deviation
Protocol: The mononuclear macrophage system is a very important defense system, which has a powerful ability to swallow and clear foreign particles. When a certain concentration of charcoal particles enters the body through the tail vein of the mice, they are carried to the liver, spleen, etc. by the flow of blood, and the macrophages of these organs can remove these charcoal particles. Within a certain concentration range, the rate of macrophages' elimination of charcoal particles is exponentially related to their dose, that is, the rate of phagocytosis is directly proportional to the concentration of charcoal particles in the blood. Therefore, taking the logarithm of the concentration of charcoal particles in the blood of mice as the ordinate and the time as the abscissa, the slope K represents the phagocytic rate of macrophages, but this is an uncorrected phagocytic index. In fact, its phagocytic activity is also related to the weight of the liver and spleen of mice. Different weights result in different K values. Therefore, it is generally expressed by the corrected phagocytic index α, which reflects the phagocytic activity per unit tissue weight. The calculation formulas of K and a are as follows: K=(log A1−log A2)/(t2−t1) α=(k^1/3×body weight)/(liver weight+spleen weight)
Materials: Kunming mice (female, 4-5 weeks old), Indian ink, normal saline, Na2CO3 solution (0.1% g/v), UV ultraviolet visible photometer.
Kunming mice were randomly divided into groups and administered for 2 weeks. One hour after the last administration, each mouse was injected intravenously with 0.1 mL/10 g of Indian ink 5 times diluted with normal saline, and started timing immediately after injection, 20 μL of blood samples were accurately collected from the orbital venous plexus and added into 2 mL of 0.1% Na2CO3 solution at 2 min (t1) and 10 min (t2) time points, respectively. After mixing evenly, use 0.1% Na2CO3 solution as the control group, each administration group was the experimental group, the absorbance at two time points of t1 and t2 were measured by ultraviolet spectrophotometer at 600 nm, and counted as A1 and A2. The clearance index is calculated by the calculation formula of the above K value. In addition, after the completion of blood collection, the mice were sacrificed by neck removal, and the liver and spleen were taken out and weighed. Calculate the phagocytic index α.

[12] = test system: human normal hepatocyte HL7702; test: MTT proliferation inhibition on normal human cells, HL7702; format: cell-based; details: L02, 48 hours, average of three tests
Description: (§3) The in vitro cell proliferation inhibitory activity test of the target compound adopts the MTT method. Human leukemia K562 cell line, human myeloma U266 cell line, human lung cancer A549 cell, human prostate cancer PC-3 cell line, human lymphoma U937 cell line, human liver cancer PLC/PRF/5 cell line, and human embryonic kidney cell HEK293, human normal hepatocyte HL7702 were taken, and all adopted routine culture. Logarithmic growth phase cells were used in the experiment. The cell suspensions of the above cells were taken and counted under an inverted microscope, and the medium was added to adjust the number of cells to 1×10^5/mL. A 96-well cell culture plate was taken for cell inoculation and drug experiment. The peripheral holes are not used (filled with sterile PBS). Blank control group, negative control group, positive control group and a drug experiment group were set up. […] Measure the OD value of each well with a microplate reader at a wavelength of 570 nm, and the cell growth inhibition rate is calculated according to the following formula: […]

[13] = test system: human embryonic kidney cell HEK293; test: MTT proliferation inhibition on normal human cells, HEK293; format: cell-based; details: 48 hours, average of three tests
Description: as §3

[14] = test system: liver cancer H22; test: Inhibition of liver cancer H22 lung metastasis in mice; format: in vivo, Kunming mice; details: intragastric administration, 2.69-4.48 mg/kg, two cycles; FIG. 1-4
Protocol: Take well-grown H22 mice with liver cancer, extract ascites, add sterile PBS solution to dilute to a concentration of 2.5×10^7/mL, and inoculate Kunming mice through tail vein with 200 μL each. The Kunming mice with overweight or underweight were excluded, randomly grouped, and the drug was administrated according to the dosing schedule.
The Kunming mice inoculated with H22 tumors were weighed and randomly divided into the following 6 groups, with 7 mice in each group. […] The mice were sacrificed 13 days after the inoculation. The calculation formula for the inhibition rate of lung metastasis of liver cancer was as follows: […]

[15] = Homo sapiens, PLC-PRF-5, 48 hours

Aminopeptidase N (APN), sequence (P15144 whole entry, species assumed): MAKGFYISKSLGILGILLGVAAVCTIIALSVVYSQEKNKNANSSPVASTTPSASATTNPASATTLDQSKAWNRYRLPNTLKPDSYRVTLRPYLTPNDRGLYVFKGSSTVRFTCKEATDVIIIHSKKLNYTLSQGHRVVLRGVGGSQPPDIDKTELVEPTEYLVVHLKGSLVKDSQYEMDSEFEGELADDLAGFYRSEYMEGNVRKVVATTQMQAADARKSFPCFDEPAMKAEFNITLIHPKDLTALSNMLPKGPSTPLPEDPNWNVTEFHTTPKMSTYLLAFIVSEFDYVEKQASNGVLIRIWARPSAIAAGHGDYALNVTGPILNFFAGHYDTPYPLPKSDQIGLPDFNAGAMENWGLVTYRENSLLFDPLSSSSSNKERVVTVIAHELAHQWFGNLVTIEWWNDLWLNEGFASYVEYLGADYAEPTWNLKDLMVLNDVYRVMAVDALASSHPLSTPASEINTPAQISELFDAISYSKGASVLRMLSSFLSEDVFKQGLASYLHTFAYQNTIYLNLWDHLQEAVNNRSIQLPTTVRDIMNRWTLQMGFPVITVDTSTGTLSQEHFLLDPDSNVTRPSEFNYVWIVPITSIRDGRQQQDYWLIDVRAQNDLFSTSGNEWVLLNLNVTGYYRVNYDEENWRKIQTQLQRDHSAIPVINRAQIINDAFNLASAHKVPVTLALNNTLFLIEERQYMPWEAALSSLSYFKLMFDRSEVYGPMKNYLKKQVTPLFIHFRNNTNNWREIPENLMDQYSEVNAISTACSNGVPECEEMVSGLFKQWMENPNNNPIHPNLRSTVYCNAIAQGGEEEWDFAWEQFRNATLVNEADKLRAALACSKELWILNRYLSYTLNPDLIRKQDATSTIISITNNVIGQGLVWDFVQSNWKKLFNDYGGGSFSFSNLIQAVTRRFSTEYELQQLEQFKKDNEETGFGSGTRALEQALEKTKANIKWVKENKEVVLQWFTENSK

| SMILES | IC50 [1, 15] [µM] | IC50 ([2]; Homo sapiens, A549, 48 hours) [µM] | IC50 ([3]; Homo sapiens, U-266, 48 hours) [µM] | IC50 ([4]; Homo sapiens, K562, 48 hours) [µM] | IC50 [8] [µM] | IC50 [9] [µM] | IC50 [12] [µM] | IC50 [13] [µM] | IC50 ([5]; Homo sapiens, PC-3, 48 hours) [µM] | IC50 ([6]; Homo sapiens, U-937, 48 hours) [µM] | further results |
| --- | --- | --- | --- | --- | --- | --- | --- | --- | --- | --- | --- |
| CC(C)C[C@H](NC(=O)[C@@H](O)[C@H](N)Cc1ccccc1)C(=O)O [Bestatin, reference compound] |  |  |  |  |  |  |  |  |  |  | IC50 ([1]; 48 hours): > 200 µM; IC50 ([2]; 48 hours): > 200 µM; IC50 ([3]; 48 hours): > 200 µM; IC50 ([4]; 48 hours): > 200 µM; IC50 ([5]; 48 hours): > 200 µM; IC50 ([6]; 48 hours): > 200 µM |
| CC(C)C[C@H](NC(=O)[C@@H](O)[C@H](N)Cc1ccccc1)B1OC(=O)C(CC(=O)O)(CC(=O)O)O1 [Bestazomib Citrate, 2,2′-(2-((R)-1-((2S,3R)-3-amino-2-hydroxy-4-phenylbutanoylamino)-3-methylbutyl)-5-oxo-1,3,2-dioxaborolan-4,4-diyl) diacetic acid] | 54.7 ± 4.12 | 63.6 ± 5.71 | 21.7 ± 1.87 | 12.3 ± 1.46 | 8.56 | 2.14 | 371 ± 70.9 | 446 ± 19.4 | 45.6 ± 3.16 | 6.42 ± 0.64 | survival time of mice [7]: better than the prolonged time of the positive drug Ixazomib; survival time of B16F10 melanoma mice ([10]; 4, 6, 9 mg/kg/4d, FIG. 7): significantly prolong the survival time; survival time of mice compared with Ixazomib ([10]; medium-dose 6 mg/kg/4d and high-dose 9 mg/kg/4d vs Ixazomib 4 mg/kg/4d): better survival time of mice in the medium-dose and high-dose than the positive drug Ixazomib; phagocytic ability of macrophages in mice ([11]; compared with positive control Ixazomib): significantly stronger than that of the positive control Ixazomib; carbon clearance index (K) ([11]; high-dose 4.48 mg/kg/4 d po.): 0.063 ± 0.0002; phagocytosis index(α) ([11]; high-dose 4.48 mg/kg/4 d po.): 21.628 ± 0.026; carbon clearance index (K) ([11]; low-dose 2.69 mg/kg/4 d po.): 0.066 ± 0.0077; phagocytosis index(α) ([11]; low-dose 2.69 mg/kg/4 d po.): 24.842 ± 0.969; carbon clearance index (K) ([11]; medium-dose 3.59 mg/kg/4 d po.): 0.076 ± 0.0016; phagocytosis index(α) ([11]; medium-dose 3.59 mg/kg/4 d po.): 21.620 ± 0.154; anti-tumor activity (H22 lung metastasis) [14]: strong anti-tumor activity |
| CC(C)C[C@H](NC(=O)[C@@H](O)[C@H](N)Cc1ccccc1)B(O)O [Bestazomib, (R)-1-((2S,3R)-3-amino-2-hydroxy-4-phenylbutyramide)-3-methylbu tylboronic acid] | 79.6 ± 6.32 | 98.4 ± 7.51 | 36.6 ± 2.07 | 37.1 ± 2.28 | 10.2 | 3.87 |  |  | 65.7 ± 5.83 | 15.5 ± 1.41 |  |
| CC(C)C[C@H](NC(=O)CNC(=O)c1cc(Cl)ccc1Cl)B(O)O [Ixazomib, reference compound] |  |  |  |  |  | 18.2 | 4.04 ± 0.63 | 17.1 ± 2.27 |  |  |  |
